Measurements published in patent US11407738B2 (Achillion Pharmaceuticals, Inc., priority 2015, dated 2022).

What follows are compounds tested against Human Factor D (Homo sapiens (Human), UniProt P00746) (assay: Human Factor D assay). Details: Table 3; Factor D inhibition, substrate Z-L-Lys-SBzl.
Human Factor D, sequence (P00746 26-253): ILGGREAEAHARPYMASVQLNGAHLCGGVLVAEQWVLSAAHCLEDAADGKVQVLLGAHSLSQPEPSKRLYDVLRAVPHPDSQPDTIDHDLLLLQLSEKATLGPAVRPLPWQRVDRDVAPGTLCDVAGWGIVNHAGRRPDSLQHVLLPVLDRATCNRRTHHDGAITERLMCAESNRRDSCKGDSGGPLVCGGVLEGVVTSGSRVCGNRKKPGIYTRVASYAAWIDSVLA
Format: biochemical
Procedure, shortened: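 Serum-purified human factor D (80 nM final) preincubated 5 min at room temperature with test compound in 50 mM Tris, 1M NaCl, pH 7.5. Z-L-Lys-SBzl substrate and DTNB then added, each at 100 μM final. IC50 from nonlinear regression of reaction rate against compound concentration.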
With `CC(=O)c1nn(CC(=O)N2C[C@H](F)C[C@H]2C(=O)Nc2cccc(-c3ccc4scnc4c3)c2F)c2ccc(-c3cnc(C)nc3)cc12` [Compound 520, (2S,4R)-1-(2-(3-acetyl-5-(2-methylpyrimidin-5-yl)-1H-indazol-1-yl)acetyl)-N-(3-(benzo[d]thiazol-5-yl)-2-fluorophenyl)-4-fluoropyrrolidine-2-carboxamide] the IC50 was < 1 µM. For `COC(=O)[C@@H]1C[C@@H](F)CN1C(=O)Cn1nc(C(C)=O)c2cc(-c3cnc(C)nc3)ccc21` [Compound 513, (2S,4R)-methyl 1-(2-(3-acetyl-5-(2-methylpyrimidin-5-yl)-1H-indazol-1-yl)acetyl)-4-fluoropyrrolidine-2-carboxylate], the IC50 was > 10 µM. In the case of `CC(=O)c1nn(CC(=O)N2C[C@H](F)C[C@H]2C(=O)Nc2cccc(-c3ccccc3Cl)c2F)c2ccc(N3CCn4c(nnc4C(F)(F)F)C3)cc12` [Compound 531, (2S,4R)-1-(2-(3-acetyl-5-(3-(trifluoromethyl)-5,6-dihydro-[1,2,4]triazolo[4,3-a]pyrazin-7(8H)-yl)-1H-indazol-1-yl)acetyl)-N-(2′-chloro-2-fluorobiphenyl-3-yl)-4-fluoropyrrolidine-2-carboxamide], the IC50 is reported as < 1 µM. `CC(=O)c1nn(CC(=O)N2C[C@H](F)C[C@H]2C(=O)Nc2cccc(-c3ccc4scnc4c3)c2F)c2ccc(-c3cnc4cc(C)nn4c3)cc12` [Compound 519, (2S,4R)-1-(2-(3-acetyl-5-(2-methylpyrazolo[1,5-a]pyrimidin-6-yl)-1H-indazol-1-yl)acetyl)-N-(3-(benzo[d]thiazol-5-yl)-2-fluorophenyl)-4-fluoropyrrolidine-2-carboxamide] was tested, and the IC50 was < 1 µM. For `CC(=O)c1nn2c3ccc(cc13)-c1cnc(nc1)NCCCCCCCCC/C=C\c1cc(Cl)c(F)c(c1)CNC(=O)[C@@H]1C[C@@H](F)CN1C(=O)C2` [Compound 518, (5^2S,5^4R,Z)-2^3-acetyl-9^5-chloro-5^4,9^6-difluoro-2^1H-7,21-diaza-2(5,1)-indazola-1(5,2)-pyrimidina-5(1,2)-pyrrolidina-9(1,3)-benzenacyclohenico-saphan-10-ene-4,6-dione], the IC50 was < 1 µM.

Same assay, conditions: Table 4; Factor D inhibition, substrate Z-L-Lys-SBzl
`Cc1cc2ncc(-c3nc4c(s3)c(C(N)=O)nn4CC(=O)N3C[C@H](F)C[C@H]3C(=S)NC3CCC(c4cc5sccc5s4)C3)cn2n1` (stereo partly drawn) [Compound 640, 1-(2-((2S,4R)-4-fluoro-2-((3-(thieno[3,2-b]thiophen-2-yl)cyclopentyl)carba-mothioyl)pyrrolidin-1-yl)-2-oxoethyl)-5-(2-methylpyrazolo[1,5-a]pyrimidin-6-yl)-1H-pyrazolo[3,4-d]thiazole-3-carboxamide] was tested, and the IC50 was > 10 µM. For `Cc1cccc(NC(=O)[C@@H]2CCC(F)CCN2C(=O)Cn2cc(C(N)=O)c3cc(-c4ccc5cccnc5c4)ccc32)n1` (stereo partly drawn) [Compound 602, 1-(2-((2S)-5-Fluoro-2-((6-methylpyridin-2-yl)carbamoyl)azepan-1-yl)-2-oxoethyl)-5-(quinolin-7-yl)-1H-indole-3-carboxamide], the IC50 was > 10 µM. `CC(=O)c1nn(CC(=O)N2C[C@H](F)C[C@H]2CC(=O)Nc2cccc(Br)n2)c2ccc(-c3cnc(C)nc3)cc12` [Compound 580, 2-((2R,4R)-1-(2-(3-Acetyl-5-(2-methylpyrimidin-5-yl)-1H-indazol-1-yl)acetyl)-4-fluoropyrrolidin-2-yl)-N-(6-bromopyridin-2-yl)acetamide] was tested, and the IC50 was > 10 µM. `Cc1cccc(NC(=O)[C@@H]2CCC(F)CCN2C(=O)Cn2cc(C(N)=O)c3cc(-c4ccc(N)nc4)ccc32)n1` (stereo partly drawn) [Compound 595, 5-(6-Aminopyridin-3-yl)-1-(2-((2S)-5-fluoro-2-((6-methylpyridin-2-yl)carbamoyl)azepan-1-yl)-2-oxoethyl)-1H-indole-3-carboxamide] was tested, and the IC50 was > 10 µM. For `CC(=O)c1nn(CC(=O)N2C[C@H](F)C[C@H]2CC(=O)NC#N)c2ccc(-c3cnc(C)nc3)cc12` [Compound 579, 2-((2R,4R)-1-(2-(3-Acetyl-5-(2-methylpyrimidin-5-yl)-1H-indazol-1-yl)acetyl)-4-fluoropyrrolidin-2-yl)-N-cyanoacetamide], the IC50 was > 10 µM. `Cc1cccc(NC(=O)[C@@H]2CCC(F)CCN2C(=O)Cn2cc(C(N)=O)c3cc(-c4ccc5c(c4)CC5)ccc32)n1` (stereo partly drawn) [Compound 587, 5-(1,2-Dihydrocyclobutabenzen-4-yl)-1-(2-((2S)-5-fluoro-2-(6-methylpyridin-2-ylcarbamoyl)azepan-1-yl)-2-oxoethyl)-1H-indole-3-carboxamide] was tested, and the IC50 was > 10 µM. `CC(=O)c1nn(CC(=O)N2C[C@H](F)C[C@H]2c2nnc(-c3cccc(Cl)c3F)[nH]2)c2ccc(-c3cnc(C)nc3)cc12` [Compound 571, 2-(3-acetyl-5-(2-methylpyrimidin-5-yl)-1H-indazol-1-yl)-1-((2S,4R)-2-(5-(3-chloro-2-fluorophenyl)-4H-1,2,4-triazol-3-yl)-4-fluoropyrrolidin-1-yl)ethan-1-one] was tested, and the IC50 was > 10 µM. In the case of `CC(=O)c1nn(CC(=O)N2C[C@H](F)C[C@H]2C(=O)Nc2cccc(Br)n2)c2ccc(N3C[C@H]4CCCC[C@H]4C3)cc12` [Compound 621, (2S,4R)-1-(2-(3-acetyl-5-((3aR,7aS)-hexahydro-1H-isoindol-2(3H)-yl)-1H-indazol-1-yl)acetyl)-N-(6-bromopyridin-2-yl)-4-fluoropyrrolidine-2-carboxamide], the IC50 is reported as < 1 µM. In the case of `CC(=O)c1nn(CC(=O)N2C[C@H]3C[C@H]3[C@H]2C(=O)Nc2ccn(CC(F)(F)F)n2)c2ccc(-c3cnc(C)nc3)cc12` [Compound 606, (1R,2S,5S)-3-(2-(3-acetyl-5-(2-methylpyrimidin-5-yl)-1H-indazol-1-yl)acetyl)-N-(1-(2,2,2-trifluoroethyl)-1H-pyrazol-3-yl)-3-azabicyclo[3.1.0]hex-ane-2-carboxamide], the IC50 is reported as < 1 µM. With `Cc1cccc(NC(=O)[C@@H]2CCC(F)CCN2C(=O)Cn2cc(C(N)=O)c3cc(-c4cnc5cc(C)nn5c4)ccc32)n1` (stereo partly drawn) [Compound 614, 1-(2-((2S)-5-Fluoro-2-((6-methylpyridin-2-yl)carbamoyl)azepan-1-yl)-2-oxoethyl)-5-(2-methylpyrazolo[1,5-a]pyrimidin-6-yl)-1H-indole-3-carboxamide] the IC50 was > 10 µM. With `CC[C@H](C(=O)Nc1cccc(Br)n1)N(C)C(=O)Cn1nc(C(C)=O)c2cc(-c3cnc(C)nc3)ccc21` [Compound 597, (R)-2-(2-(3-acetyl-5-(2-methylpyrimidin-5-yl)-1H-indazol-1-yl)-N-methylacetamido)-N-(6-bromopyridin-2-yl)butanamide] the IC50 was > 10 µM. For `CC(=O)c1nn(CC(=O)N2C[C@H](F)C[C@H]2C(=O)Nc2cccc(Br)n2)c2ccc(N3CCn4c(nnc4C(F)(F)F)C3)cc12` [Compound 618, (2S,4R)-1-(2-(3-acetyl-5-(3-(trifluoromethyl)-5,6-dihydro-[1,2,4]triazolo[4,3-a]pyrazin-7(8H)-yl)-1H-indazol-1-yl)acetyl)-N-(6-bromopyridin-2-yl)-4-fluoropyrrolidine-2-carboxamide], the IC50 was < 1 µM. With `Cc1cccc(NC(=O)[C@@H]2CC=CCN2C(=O)Cn2cc(C(N)=O)c3cc(-c4cnc5cc(C)nn5c4)ccc32)n1` [Compound 612, (S)-5-(2-Methylpyrazolo[1,5-a]pyrimidin-6-yl)-1-(2-(2-((6-methylpyridin-2-yl)carbamoyl)-3,6-dihydropyridin-1 (2H)-yl)-2-oxoethyl)-1H-indole-3-carboxamide] the IC50 was > 10 µM. In the case of `CC(=O)c1nn(CC(=O)N2C[C@H](F)C[C@H]2C[S+]([O-])c2cccc(Br)n2)c2ccc(-c3cnc(C)nc3)cc12` (stereo partly drawn) [Compound 604, 2-(3-Acetyl-5-(2-methylpyrimidin-5-yl)-1H-indazol-1-yl)-1-((2S,4R)-2-(((6-bromopyridin-2-yl)sulfinyl)methyl)-4-fluoropyrrolidin-1-yl)ethan-1-one], the IC50 is reported as 1 to 10 µM. In the case of `Cc1ncc(-c2ccc3c(c2)c(C(=O)NS(C)(=O)=O)nn3CC(=O)N2C[C@H](F)C[C@H]2C(=O)Nc2cccc(Br)n2)cn1` [Compound 585, 1-(2-((2S,4R)-2-((6-bromopyridin-2-yl)carbamoyl)-4-fluoropyrrolidin-1-yl)-2-oxoethyl)-5-(2-methylpyrimidin-5-yl)-N-(methylsulfonyl)-1H-indazole-3-carboxamide], the IC50 is reported as > 10 µM. With `Cc1cccc(C[C@H](O)[C@@H]2C[C@@H](F)CN2C(=O)Cn2cc(C(N)=O)c3cc(-c4cnc(C)nc4)ccc32)n1` [Compound 559, 1-(2-((2S,4R)-4-Fluoro-2-((S)-1-hydroxy-2-(6-methylpyridin-2-yl)ethyl)pyrrolidin-1-yl)-2-oxoethyl)-5-(2-methylpyrimidin-5-yl)-1H-indole-3-carboxamide] the IC50 was > 10 µM. `CC(=O)c1nn(CC(=O)N2CCC[C@@H](CNC(=O)c3cccc(Br)n3)C2)c2ccc(-c3cnc(C)nc3)cc12` [Compound 543, (S)—N-((1-(2-(3-Acetyl-5-(2-methylpyrimidin-5-yl)-1H-indazol-1-yl)acetyl)piperidin-3-yl)methyl)-6-bromopicolinamide] was tested, and the IC50 was > 10 µM. With `Cc1ncc(-c2ccc3c(c2)c([C@@H](C)O)nn3CC(=O)N2C[C@H](F)C[C@H]2C(=O)O)cn1` [Compound 550, (2S,4R)-4-fluoro-1-(2-(3-((R)-1-hydroxyethyl)-5-(2-methylpyrimidin-5-yl)-1H-indazol-1-yl)acetyl)pyrrolidine-2-carboxylic acid] the IC50 was > 10 µM. In the case of `Cc1ncc(-c2ccc3c(c2)c(C(=N)N)nn3CC(=O)N2C[C@H](F)C[C@H]2C(=O)Nc2cccc(-c3ccccc3Cl)c2F)cn1` [Compound 542, (2S,4R)-1-(2-(3-Carbamimidoyl-5-(2-methylpyrimidin-5-yl)-1H-indazol-1-yl)acetyl)-N-(2′-chloro-2-fluoro-[1,1′-biphenyl]-3-yl)-4-fluoropyrrolidine-2-carboxamide], the IC50 is reported as < 1 µM. For `COc1cc(CC(=O)N2C[C@H](F)C[C@H]2C(=O)Nc2cccc(-c3ccccc3Cl)c2F)cc(-c2cnc(C)nc2)c1` [Compound 636, (2S,4R)—N-(2′-chloro-2-fluoro-[1,1′-biphenyl]-3-yl)-4-fluoro-1-(2-(3-methoxy-5-(2-methylpyrimidin-5-yl)phenyl)acetyl)pyrrolidine-2-carboxamide], the IC50 was < 1 µM.
